Tests used:
Format in all cases: in vivo
common chickweed [1] = test: Test Example 4: herbicidal effect in foliage treatment; conditions: dose 6.3 g/a, three weeks after application
Procedure, shortened: (§1)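 Seeds sown in sterilized diluvial soil under ~1.5 cm soil cover and grown 14 days in a greenhouse at 25 to 30° C. Emulsifiable concentrates diluted with water were then sprayed uniformly on foliage at predetermined doses (g/a). Herbicidal effect was scored three weeks after application on a graded evaluation scale.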

beadstraw = test: as above; conditions: dose 6.3 g/a, three weeks after application
Procedure, shortened: as §1

barnyardgrass [2] = test: as above; conditions: dose 6.3 g/a, three weeks after application
Procedure, shortened: as §1

common ragweed [3] = test: as above; conditions: dose 6.3 g/a, three weeks after application
Procedure, shortened: as §1

common lambsquater [4] = test: as above; conditions: dose 6.3 g/a, three weeks after application
Procedure, shortened: as §1

Italian ryegrass [5] = test: as above; conditions: dose 6.3 g/a, three weeks after application
Procedure, shortened: as §1

giant foxtail [6] = test: as above; conditions: dose 6.3 g/a, three weeks after application
Procedure, shortened: as §1

water foxtail [7] = test: as above; conditions: dose 6.3 g/a, three weeks after application
Procedure, shortened: as §1

wild oat [8] = test: as above; conditions: dose 6.3 g/a, three weeks after application
Procedure, shortened: as §1

redroot pigweed [9] = test: as above; conditions: dose 6.3 g/a, three weeks after application
Procedure, shortened: as §1

large crabgrass [10] = test: as above; conditions: dose 6.3 g/a, three weeks after application
Procedure, shortened: as §1

transplanted rice = test: Test Example 1: preemergence treatment under submerged conditions, effect on crop; conditions: dose 2.52 g/a
Procedure, shortened: (§2)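 Weed seeds and 2.5-leaf rice seedlings shared each flooded cup of alluvial soil. Dosing, expressed as g per are, was by pouring water-diluted emulsifiable concentrate onto the surface on sowing day. Mortality was graded 0 to 5 after three weeks' growth.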

ducksalad [11] = test: Test Example 2: herbicidal effects during the vegetation period under submerged conditions; conditions: treatment during the vegetation period under submerged conditions; dose 2.52 g/a
Procedure, shortened: (§3)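 Barnyardgrass, bulrush and ducksalad were co-sown in alluvial soil flooded to 4 cm and grown in a greenhouse at 25 to 30° C. At the 1- or 2-leaf stage, water-diluted emulsifiable concentrates went onto the water surface at set doses (g/a). Herbicidal effect was scored three weeks later on a graded scale.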

bulrush [12] = test: as above; conditions: treatment during the vegetation period under submerged conditions; dose 2.52 g/a
Procedure, shortened: as §3

barnyardgrass [13] = test: as above; conditions: treatment during the vegetation period under submerged conditions; dose 2.52 g/a
Procedure, shortened: as §3

barnyardgrass [14] = test: Test Example 3: herbicidal effects in soil treatment; conditions: dose 6.3 g/a
Procedure, shortened: (§4)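 Seeds were sown in sterilized diluvial soil and covered with about 1.5 cm of soil. Compounds, formulated as emulsifiable concentrates and diluted with water, were sprayed evenly over the soil surface at set doses in g/a. Herbicidal effect was scored on a rating scale three weeks later.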

common ragweed [15] = test: as above; conditions: dose 6.3 g/a
Procedure, shortened: as §4

common lambsquater [16] = test: as above; conditions: dose 6.3 g/a
Procedure, shortened: as §4

Italian ryegrass [17] = test: as above; conditions: dose 6.3 g/a
Procedure, shortened: as §4

giant foxtail [18] = test: as above; conditions: dose 6.3 g/a
Procedure, shortened: as §4

water foxtail [19] = test: as above; conditions: dose 6.3 g/a
Procedure, shortened: as §4

wild oat [20] = test: as above; conditions: dose 6.3 g/a
Procedure, shortened: as §4

redroot pigweed [21] = test: as above; conditions: dose 6.3 g/a
Procedure, shortened: as §4

large crabgrass [22] = test: as above; conditions: dose 6.3 g/a
Procedure, shortened: as §4

ducksalad [23] = test: Test Example 1: herbicidal effects in preemergence treatment under submerged conditions; conditions: dose 2.52 g/a
Procedure, shortened: as §2

bulrush [24] = test: as above; conditions: dose 2.52 g/a
Procedure, shortened: as §2

barnyardgrass [25] = test: as above; conditions: dose 2.52 g/a
Procedure, shortened: as §2

common chickweed [26] = test: Test Example 3: herbicidal effects in soil treatment; conditions: dose 6.3 g/a
Procedure, shortened: as §4

Structure (SMILES)	N: common chickweed, herbicidal effect (common chickweed [1])	O: beadstraw, herbicidal effect (beadstraw)	A: barnyardgrass, herbicidal effect (barnyardgrass [2])	J: common ragweed, herbicidal effect (common ragweed [3])	L: common lambsquater, herbicidal effect (common lambsquater [4])	H: Italian ryegrass, herbicidal effect (Italian ryegrass [5])	E: giant foxtail, herbicidal effect (giant foxtail [6])	G: water foxtail, herbicidal effect (water foxtail [7])	F: wild oat, herbicidal effect (wild oat [8])	D: large crabgrass, herbicidal effect (large crabgrass [10])	a: transplanted rice, effect on crop (evaluation scale 0-5) (transplanted rice)	C: ducksalad, herbicidal effect (evaluation scale 0-5) (ducksalad [11])	B: bulrush, herbicidal effect (evaluation scale 0-5) (bulrush [12])	A: barnyardgrass, herbicidal effect (evaluation scale 0-5) (barnyardgrass [13])	A: barnyardgrass, herbicidal effect (evaluation scale 0-5) (barnyardgrass [14])	J: common ragweed, herbicidal effect (evaluation scale 0-5) (common ragweed [15])	L: common lambsquater, herbicidal effect (evaluation scale 0-5) (common lambsquater [16])	H: Italian ryegrass, herbicidal effect (evaluation scale 0-5) (Italian ryegrass [17])	E: giant foxtail, herbicidal effect (evaluation scale 0-5) (giant foxtail [18])	G: water foxtail, herbicidal effect (evaluation scale 0-5) (water foxtail [19])	other results
CC1CC(=O)N(Cc2ccccc2N(C(=O)c2ccccc2)S(=O)(=O)C(F)(F)F)CO1 (centres unmarked) [II-6]	1 (mortality of at least 5% and less than 20%)	2 (mortality of at least 20% and less than 40%)	5 (mortality of 90% or above (nearly complete death))	5 (mortality of 90% or above (nearly complete death))	1 (mortality of at least 5% and less than 20%)	3 (mortality of at least 40% and less than 70%)	4 (mortality of at least 70% and less than 90%)	5 (mortality of 90% or above (nearly complete death))	0 (mortality of less than 5% (almost ineffective))	4 (mortality of at least 70% and less than 90%)	0 (mortality of less than 5% (almost ineffective))	4 (mortality of at least 70% and less than 90%)	5 (mortality of 90% or above (nearly complete death))	5 (mortality of 90% or above (nearly complete death))	5 (mortality of 90% or above (nearly complete death))	4 (mortality of at least 70% and less than 90%)	3 (mortality of at least 40% and less than 70%)	3 (mortality of at least 40% and less than 70%)	4 (mortality of at least 70% and less than 90%)	5 (mortality of 90% or above (nearly complete death))	K: redroot pigweed, herbicidal effect (redroot pigweed [9]): 0 (mortality of less than 5% (almost ineffective)); F: wild oat, herbicidal effect (evaluation scale 0-5) (wild oat [20]): 0 (mortality of less than 5% (almost ineffective)); K: redroot pigweed, herbicidal effect (evaluation scale 0-5) (redroot pigweed [21]): 0 (mortality of less than 5% (almost ineffective)); D: large crabgrass, herbicidal effect (evaluation scale 0-5) (large crabgrass [22]): 4 (mortality of at least 70% and less than 90%); C: ducksalad, herbicidal effect (evaluation scale 0-5) (ducksalad [23]): 5 (mortality of 90% or above (nearly complete death)); B: bulrush, herbicidal effect (evaluation scale 0-5) (bulrush [24]): 5 (mortality of 90% or above (nearly complete death)); A: barnyardgrass, herbicidal effect (evaluation scale 0-5) (barnyardgrass [25]): 5 (mortality of 90% or above (nearly complete death))
CC1(C)CC(=O)N(Cc2ccccc2N(C(=O)c2ccccc2)S(=O)(=O)C(F)(F)F)CO1 [II-21]	4 (mortality of at least 70% and less than 90%)	4 (mortality of at least 70% and less than 90%)	5 (mortality of 90% or above (nearly complete death))	5 (mortality of 90% or above (nearly complete death))	4 (mortality of at least 70% and less than 90%)	4 (mortality of at least 70% and less than 90%)	4 (mortality of at least 70% and less than 90%)	5 (mortality of 90% or above (nearly complete death))	0 (mortality of less than 5% (almost ineffective))	4 (mortality of at least 70% and less than 90%)	0 (mortality of less than 5% (almost ineffective))	5 (mortality of 90% or above (nearly complete death))	5 (mortality of 90% or above (nearly complete death))	5 (mortality of 90% or above (nearly complete death))	5 (mortality of 90% or above (nearly complete death))	5 (mortality of 90% or above (nearly complete death))	0 (mortality of less than 5% (almost ineffective))	5 (mortality of 90% or above (nearly complete death))	3 (mortality of at least 40% and less than 70%)	5 (mortality of 90% or above (nearly complete death))	K: redroot pigweed, herbicidal effect (redroot pigweed [9]): 2 (mortality of at least 20% and less than 40%); N: common chickweed, herbicidal effect (evaluation scale 0-5) (common chickweed [26]): 4 (mortality of at least 70% and less than 90%); F: wild oat, herbicidal effect (evaluation scale 0-5) (wild oat [20]): 0 (mortality of less than 5% (almost ineffective)); D: large crabgrass, herbicidal effect (evaluation scale 0-5) (large crabgrass [22]): 5 (mortality of 90% or above (nearly complete death)); C: ducksalad, herbicidal effect (evaluation scale 0-5) (ducksalad [23]): 5 (mortality of 90% or above (nearly complete death)); B: bulrush, herbicidal effect (evaluation scale 0-5) (bulrush [24]): 5 (mortality of 90% or above (nearly complete death)); A: barnyardgrass, herbicidal effect (evaluation scale 0-5) (barnyardgrass [25]): 5 (mortality of 90% or above (nearly complete death))
CCOC(=O)N(c1ccccc1CN1COC(C)(C)CC1=O)S(=O)(=O)C(F)(F)F [II-23, 6,6-dimethyl-3-[2-(N-ethoxycarbonyl-N-trifluoromethanesulfonyl)aminobenzyl]-1,3-oxazinan-4-one]	4 (mortality of at least 70% and less than 90%)	5 (mortality of 90% or above (nearly complete death))	5 (mortality of 90% or above (nearly complete death))	5 (mortality of 90% or above (nearly complete death))	4 (mortality of at least 70% and less than 90%)	4 (mortality of at least 70% and less than 90%)	4 (mortality of at least 70% and less than 90%)	5 (mortality of 90% or above (nearly complete death))	0 (mortality of less than 5% (almost ineffective))	5 (mortality of 90% or above (nearly complete death))	0 (mortality of less than 5% (almost ineffective))	5 (mortality of 90% or above (nearly complete death))	5 (mortality of 90% or above (nearly complete death))	5 (mortality of 90% or above (nearly complete death))	5 (mortality of 90% or above (nearly complete death))	5 (mortality of 90% or above (nearly complete death))	2 (mortality of at least 20% and less than 40%)	4 (mortality of at least 70% and less than 90%)	5 (mortality of 90% or above (nearly complete death))	5 (mortality of 90% or above (nearly complete death))	N: common chickweed, herbicidal effect (evaluation scale 0-5) (common chickweed [26]): 4 (mortality of at least 70% and less than 90%); F: wild oat, herbicidal effect (evaluation scale 0-5) (wild oat [20]): 0 (mortality of less than 5% (almost ineffective)); D: large crabgrass, herbicidal effect (evaluation scale 0-5) (large crabgrass [22]): 5 (mortality of 90% or above (nearly complete death)); C: ducksalad, herbicidal effect (evaluation scale 0-5) (ducksalad [23]): 5 (mortality of 90% or above (nearly complete death)); B: bulrush, herbicidal effect (evaluation scale 0-5) (bulrush [24]): 5 (mortality of 90% or above (nearly complete death)); A: barnyardgrass, herbicidal effect (evaluation scale 0-5) (barnyardgrass [25]): 5 (mortality of 90% or above (nearly complete death))
